Read-outs that look alike come from different tables or passages of the source.
Tests used:
Format in all cases: biochemical
[1] = target: JNK3 (Homo sapiens, UniProt P53779); assay: JNK3 33P kinase assay; conditions: read-out: JNK3 activity as percentage of control without inhibitor
Experimental: (§1) All assays (25.5 μl) were carried out at room temperature (21° C.) and were linear with respect to time and enzyme concentrations under the conditions used. Assays were performed for 30 minutes except assays for LCK and PKB which were performed for 15 minutes using Multidrop Micro reagent dispensers (Thermo Electron Corporation, Waltham, Mass. 02454, USA) in a 96-well format. The concentration of […] [γ-^33P] ATP (800 cpm/pmol) in the assays was one of three concentrations (5, 20 or 50 μM) in order to be at or below Km for ATP for the enzyme. Assays were initiated with MgATP and stopped by addition of 5 μl of 0.5M orthophosphoric acid. Assays were then harvested onto P81 filterplates using a unifilter harvester (PerkinElmer, Boston, Mass. 02118, USA), with a wash buffer of 50 mM orthophosphoric acid. Filterplates were then air dried overnight. 10 μl of Microscint O was added per well prior to counting for radioactivity.
The following kinases were assayed against the substrates indicated. Aurora B was assayed against the substrate peptide […] (300 μM), ERK8 and MST-2 were both assayed against MBP (0.33 mg/ml). IKKβ was assayed against the substrate peptide […] (300 μM), JNK3 was assayed against 3 μM ATF2[19-96]. MAPKAP-K3 and PKD1 were both assayed against […] (30 μM), MARK3 was assayed against CHKtide ([…]) substrate peptide (300 μM). MNK1 and MNK2 were both assayed against eIF4E protein (0.5 mg/ml). NEK7 was assayed against […] (300 μM), PIM2 was assayed against […] (300 μM), ΔPH PKBβ-S474D was assayed against Crosstide (30 μM), PLK1 was assayed against […] (300 μM). PRK2 was assayed against Long S6 peptide, […] (30 μM), RSK2 was assayed against […] (30 μM), SRC was assayed against cdc2 peptide, […], (300 μM) and SRPK1 was assayed against peptide […] (300 μM). All enzymes were diluted in 50 mM Tris/HCl pH 7.5, 0.1 mM EGTA, 1 mg/ml BSA, 0.1% β-mercaptoethanol buffer and assayed in an incubation containing 50 mM Tris/HCl pH7.5, 0.1 mM EGTA, 0.1% β-mercaptoethanol, CAMK-1 (5-20 mU) diluted in 50 mM Tris/HCl pH 7.5, 0.1 mM EGTA, 1 mg/ml BSA, 0.1% β-mercaptoethanol is assayed against substrate peptide […] in an incubation containing 50 mM Tris/HCl pH 7.5, 0.1 mM EGTA, 0.5 mM CaCl2, 0.3 μM calmodulin, 0.1% β-mereaptoethanol, 300 μM substrate peptide, 10 mM magnesium acetate and 0.05 mM [^33P-γ-ATP] (500-1000 cpm/pmole). EF2K (5-20 mU) diluted in 50 mM Hepes pH 6.6, 0.1% β-mercaptoethanol, 1 mg/ml BSA is assayed against a substrate peptide […] in an incubation containing 50 mM Hepes pH 6.6, 0.2 mM CaCl2, 0.3 μM Calmodulin, 0.05% b-mercaptoethanol, 300 μM substrate peptide, 10 mM magnesium acetate and 0.05 mM [^33P-γ-ATP] (500-1000 cpm/pmole).

[2] = target: T1, PDK1 (Homo sapiens, UniProt O15530); assay: PDK1 33P kinase assay; conditions: for remaining activity at 1 µM: inhibitor 1 μM, read-out: PDKI activity as percentage of control without inhibitor; for remaining activity at 10 µM: inhibitor 10 μM, read-out: PDK1 activity as percentage of control without inhibitor
T1 sequence (O15530 1-556): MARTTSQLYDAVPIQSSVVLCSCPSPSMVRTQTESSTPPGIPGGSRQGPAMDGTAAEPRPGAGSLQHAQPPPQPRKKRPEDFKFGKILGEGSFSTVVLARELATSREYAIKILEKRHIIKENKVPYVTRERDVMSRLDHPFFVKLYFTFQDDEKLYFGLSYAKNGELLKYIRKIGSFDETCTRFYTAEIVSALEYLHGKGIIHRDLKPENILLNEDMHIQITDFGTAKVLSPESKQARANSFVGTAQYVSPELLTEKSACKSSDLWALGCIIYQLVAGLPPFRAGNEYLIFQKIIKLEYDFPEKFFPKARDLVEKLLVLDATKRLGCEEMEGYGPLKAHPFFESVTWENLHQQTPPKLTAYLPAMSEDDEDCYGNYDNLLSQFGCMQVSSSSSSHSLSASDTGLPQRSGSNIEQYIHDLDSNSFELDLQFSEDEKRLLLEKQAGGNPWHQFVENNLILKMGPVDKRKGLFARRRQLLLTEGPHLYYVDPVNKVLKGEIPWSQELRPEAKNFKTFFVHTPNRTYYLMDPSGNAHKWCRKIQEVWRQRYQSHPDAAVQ
Experimental: as §1
MKK1, JNK/SAPK1c, SAPK2a/p38, SAPK2b/p38β2, SAPK3/p38γ, SAPK4/p38δ, MAPK2/ERK2, MAPKAP-K1β, MAPKAP-K2, MSK1, PRAK, PKA, PKCα, PDK1, SGK, p70S6K, GSK3β, ROCK-II, PRK2, AMPK, CHK1, CHK2, CK2, PHK, LCK, were assayed according to Davies et al., (Davies, S. P., Reddy, H., Caivano, M. and Cohen, P. Biochem. J. 351, 95-105, 2000.
CSK and CDK2/cyclinA, were assayed according to Bain et al. (Bain J, McLauchlan H, Elliott M, Cohen P. Biochem J. 371, 199-204, 2003., except that ATP concentrations were either 5, 20 or 50 micromolar so that they were at or below the Km for ATP. The ATP concentrations used were as follows, 5 μM for assays of MKK1, SAPK3, SAPK4, GSK3β, PRK2 CK2 20 μm for assays of JNK, SAPK2β, MAPKAP-K2, MSK1, PRAK, PKA, […], PDK1, SGK, p70S6K, ROCK-II, CHK1, CHK2, CSK, CDK2, and 50 μM for assays of SAPK2a, MAPK2/ERK2, AMPK, LCK, PHK and MAPKAP-K1β.

[3] = target: MAPKAP-K1a (Homo sapiens, UniProt Q15418); assay: MAPKAP-K1a 33P kinase assay; conditions: read-out: MAPKAP-K1a activity as percentage of control without inhibitor
Sequence of MAPKAP-K1a (Q15418 whole entry, species assumed): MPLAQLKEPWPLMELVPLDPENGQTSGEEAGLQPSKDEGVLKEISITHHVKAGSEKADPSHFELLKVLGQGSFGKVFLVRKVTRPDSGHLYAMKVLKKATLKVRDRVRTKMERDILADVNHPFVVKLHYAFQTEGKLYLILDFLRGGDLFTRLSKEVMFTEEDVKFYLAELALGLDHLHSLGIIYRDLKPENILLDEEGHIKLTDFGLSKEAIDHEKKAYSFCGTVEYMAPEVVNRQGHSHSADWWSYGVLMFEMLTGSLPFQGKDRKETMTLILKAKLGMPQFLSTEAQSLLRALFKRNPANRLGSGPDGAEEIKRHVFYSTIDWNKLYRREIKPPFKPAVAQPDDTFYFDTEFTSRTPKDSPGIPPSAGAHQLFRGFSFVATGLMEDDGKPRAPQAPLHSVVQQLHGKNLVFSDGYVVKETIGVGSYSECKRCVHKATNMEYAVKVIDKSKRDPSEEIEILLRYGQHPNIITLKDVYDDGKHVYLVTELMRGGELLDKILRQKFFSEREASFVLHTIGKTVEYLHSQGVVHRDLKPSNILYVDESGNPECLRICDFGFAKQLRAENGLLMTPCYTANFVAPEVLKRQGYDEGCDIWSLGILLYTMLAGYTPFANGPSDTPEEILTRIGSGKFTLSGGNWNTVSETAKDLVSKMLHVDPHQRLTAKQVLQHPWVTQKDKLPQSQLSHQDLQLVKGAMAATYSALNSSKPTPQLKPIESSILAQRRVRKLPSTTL
Experimental: as §1
MAPKAP-K1a (5-20 mU diluted in 20 mM MOPS pH 7.5, 1 mM EDTA, 0.01% Brij35, 5% glycerol, 0.1% β-mercaptoethanol, 1 mg/ml BSA) is assayed against […] in a final volume of 25.5 μl containing 50 mM Na-β-glycerophosphate pH 7.5, 0.5 mM EDTA, 30 μM substrate peptide, 10 mM magnesium acetate and 0.05 mM [33P- γATP] (50-1000 cpm/pmole) and incubated for 40 min at room temperature.

Sequence of JNK3 (P53779 whole entry, species assumed): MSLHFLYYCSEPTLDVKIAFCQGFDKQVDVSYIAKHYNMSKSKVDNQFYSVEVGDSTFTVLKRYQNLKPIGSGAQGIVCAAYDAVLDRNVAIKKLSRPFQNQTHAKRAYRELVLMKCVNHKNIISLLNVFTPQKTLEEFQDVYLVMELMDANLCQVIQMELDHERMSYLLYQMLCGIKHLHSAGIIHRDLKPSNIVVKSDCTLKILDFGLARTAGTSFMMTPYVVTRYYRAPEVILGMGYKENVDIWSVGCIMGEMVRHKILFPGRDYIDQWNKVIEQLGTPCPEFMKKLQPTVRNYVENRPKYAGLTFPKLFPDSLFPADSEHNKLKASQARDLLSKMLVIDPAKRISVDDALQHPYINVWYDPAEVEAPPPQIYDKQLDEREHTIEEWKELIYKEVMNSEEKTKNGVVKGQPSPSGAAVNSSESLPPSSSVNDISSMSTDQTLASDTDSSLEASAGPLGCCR

SMILES | remaining activity at 1 µM [1] [%] | remaining activity at 10 µM [1] [%] | remaining activity at 1 µM [2] [%] | remaining activity at 10 µM [2] [%] | remaining activity at 1 µM ([3]; inhibitor 1 μM) [%] | remaining activity at 10 µM ([3]; inhibitor 10 μM) [%] | remaining activity at 1 µM ([1]; inhibitor 1 μM) [%] | remaining activity at 10 µM ([1]; inhibitor 10 μM) [%] | remaining activity at 1 µM [3] [%] | remaining activity at 10 µM [3] [%]
COc1ccc2c3c([nH]c2c1)C(C)=NCC3 [Harmaline] | 87 | 81 | 100 | 95 | 98 | 90 | – | – | – | –
CC1=NCCc2c1[nH]c1cc(O)ccc21 [Harmalol] | – | – | 88 | 96 | 101 | 85 | 92 | 94 | – | –
COc1ccc2c(c1)[nH]c1c(C)nccc12 [Harmine] | 89 | 83 | 89 | 95 | – | – | – | – | 105 | 92
